This note sets out measurements from the SangsterLogP compilation.

Where a SMILES comes first, the peptide text is derived from it. [ ]: non-standard residue; d: D form. Orn = NCCC[CH](N)C(=O)O

For orientation: logD means lipophilicity at a set pH, counting ionised and neutral species. Read a high logD as a more lipophilic compound.

The nature of the first series: method code SF-AS, from DOI: 10.1002/jps.2600830720, PMID: 7965659. Conditions: pH 2.0.
As to `CC(=O)N[C@@H](CCC(=O)O)C(=O)N[C@@H](Cc1ccccc1)C(=O)N[C@@H](CC(C)C)C(N)=O`, the logD was determined as 0.32.

`CCC(C)C(NC(=O)C(CC(C)C)NC(C)=O)C(=O)NC(CCC(=O)O)C(N)=O` (stereo not drawn) (Ac-Leu-Ile-Glu-NH2; configuration not given here) returned a logD of 0.07. As to `CC(=O)N[C@@H](CC(C)C)C(=O)N[C@@H](CC(=O)O)C(=O)N[C@@H](CC(C)C)C(N)=O`, the logD stood at 0.16.

As for `CCC(C)C(NC(C)=O)C(=O)NC(CC(C)C)C(=O)NC(CC(=O)O)C(N)=O` (stereo not drawn) (Ac-Ile-Leu-Asp-NH2; configuration not given here), the logD is -0.04.

For the molecule `CC(=O)N[C@@H](CC(=O)O)C(=O)N[C@@H](Cc1ccccc1)C(=O)N[C@@H](CC(C)C)C(N)=O`, the logD amounted to 0.4.

`CC(=O)N[C@@H](Cc1ccccc1)C(=O)N[C@@H](CC(=O)O)C(=O)N[C@@H](CC(C)C)C(N)=O` gave a logD of 0.39. The logD values of the last two molecules are within 0.2 log units of each other. With `CC[C@H](C)[C@H](NC(=O)[C@H](CC(=O)O)NC(C)=O)C(=O)N[C@@H](Cc1ccccc1)C(N)=O`, the logD was 0.61.

In turn, `CC(=O)NC(Cc1ccccc1)C(=O)NC(CCC(=O)O)C(=O)NC(Cc1ccccc1)C(N)=O` (stereo not drawn) (Ac-Phe-Glu-Phe-NH2; configuration not given here) displayed a logD of 0.65. `CC[C@H](C)[C@H](NC(=O)[C@H](CCC(=O)O)NC(C)=O)C(=O)N[C@@H](Cc1ccccc1)C(N)=O` (Ac-Glu-Ile-Phe-NH2): the logD was 0.43. In the case of `CC(=O)N[C@@H](CC(C)C)C(=O)N[C@@H](CCC(=O)O)C(=O)N[C@@H](Cc1ccccc1)C(N)=O`, the logD was determined as 0.48.

The same series, now with this note: pH 7.0.
On to `CSCC[C@H](NC(C)=O)C(=O)N[C@@H](Cc1ccccc1)C(N)=O`, for which the logD was 0.42. On to `CC[C@H](C)[C@H](NC(C)=O)C(=O)N[C@@H](CCSC)C(=O)N[C@@H](Cc1ccccc1)C(N)=O` (Ac-Ile-Met-Phe-NH2), for which the logD came out at 1.28. `CSCC[C@H](NC(=O)[C@H](C)NC(C)=O)C(=O)N[C@H](C(N)=O)C(C)C` gave a logD of -0.63. Same read-out and setting: the figure for `CSCC[C@H](NC(C)=O)C(=O)N[C@H](C(N)=O)C(C)C` is -0.28; for `CC[C@H](C)[C@H](NC(C)=O)C(=O)N[C@@H](C)C(=O)N[C@H](C(N)=O)C(C)C` it is -0.21.

The series is the same for the next values; noted with them: pH 10.0.
In turn, `CC(=O)NC(CCCN)C(=O)NC(Cc1ccccc1)C(N)=O` (stereo unspecified) displayed a logD of -0.41.

For the molecule `CC(=O)NC(CCCN)C(=O)NC(Cc1ccccc1)C(=O)NC(CC(C)C)C(N)=O` (stereo not drawn) (Ac-[Orn]-Phe-Leu-NH2; configuration not given here), the logD was 0.54.

As for `CC[C@H](C)[C@H](NC(=O)[C@H](CCCN)NC(C)=O)C(=O)N[C@H](C(N)=O)C(C)C`, the logD was -0.43. On the same count and under the same terms, the figure for `CC(=O)NC(Cc1ccccc1)C(=O)NC(Cc1c[nH]c2ccccc12)C(=O)NC(Cc1cnc[nH]1)C(N)=O` (stereo not drawn) (Ac-Phe-Trp-His-NH2; configuration not given here) is 1; for `CCC(C)C(NC(=O)C(Cc1c[nH]cn1)NC(C)=O)C(=O)NC(Cc1ccccc1)C(N)=O` (stereo not drawn) (Ac-His-Ile-Phe-NH2; configuration not given here) it is 0.44. The molecule `CC(=O)NC(Cc1ccccc1)C(=O)NC(Cc1c[nH]cn1)C(=O)NC(CC(C)C)C(N)=O` (stereo not drawn) (Ac-Phe-His-Leu-NH2; configuration not given here) gave a logD of 0.64.

Turning to `CC(=O)NC(CCCN)C(=O)NC(CC(C)C)C(N)=O` (stereo unspecified) (Ac-[Orn]-Leu-NH2; configuration not given here), the logD is -0.71. Same read-out and setting: then `CC(=O)NCC(=O)N[C@@H](Cc1ccccc1)C(=O)N[C@@H](Cc1c[nH]cn1)C(N)=O`, with -0.92. Still for that read-out and setting: the figure for `CC(=O)NC(Cc1c[nH]c2ccccc12)C(=O)NC(Cc1cnc[nH]1)C(=O)NC(C(N)=O)C(C)C` (stereo not drawn) (Ac-Trp-His-Val-NH2; configuration not given here) is 0.31; for `CC[C@H](C)[C@H](NC(C)=O)C(=O)N[C@@H](Cc1c[nH]cn1)C(=O)N[C@H](C(N)=O)C(C)C` it is -0.24. The same measure, in the same setting: the figure for `CC(=O)NC(CC(C)C)C(=O)NC(CCCN)C(=O)NC(Cc1ccccc1)C(N)=O` (stereo unspecified) (Ac-Leu-[Orn]-Phe-NH2; configuration not given here) is 0.53.
